Experimental data: patent publication US10646469B2, “Substituted indole derivatives as dengue viral replication inhibitors” (Janssen Pharmaceuticals, Inc., priority 2016, dated 2020)
Where two headings read alike, the source gives them in different places.

What was measured:
[1] = test system: DENV-2 16681 strain; assay: DENV-2 antiviral assay (eGFP-labeled virus in Vero cells); format: cell-based, Dengue virus; details: Dengue virus, DENV2, Vero, 72 h, DENV-2 16681 eGFP, MOI 0.5, 3 days
Summary of the method: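 Vero cells (2500/well) pre-plated with compound (9-step 5-fold series), infected next day with eGFP-labeled DENV-2 16681 at MOI 0.5 in MEM with 2% FCS; 3 days at 37° C. eGFP fluorescence read at 488 nm; inhibition versus virus and cell controls, EC50 by linear interpolation.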

[2] = Toxicity on the same plates (ATPlite cell viability); details: African green monkey, CC50, Vero cells, same plates as DENV-2 antiviral assay
[3] = test system: DENV-2; details: analogous DENV-2 antiviral assay, reported activity; cited from earlier work
[4] = analogous DENV-2 antiviral assay, reported activity; cited from earlier work

| Compound | EC50 [1] | CC50 [2] | melting point | EC50 [3] | CC50 [4] |
| --- | --- | --- | --- | --- | --- |
| COc1cc(NC(C(=O)c2c[nH]c3ccc(C(F)(F)F)cc23)c2ccc(F)cc2OC)cc(OCCO)c1 (racemic) [Compound 1, 2-(4-fluoro-2-methoxyphenyl)-2-((3-(2-hydroxyethoxy)-5-methoxyphenyl)amino)-1-(5-(trifluoromethyl)-1H-indol-3-yl)ethanone] | 0.0012 µM | 5.5 µM | 132 °C | – | – |
| COc1cc(NC(C(=O)c2c[nH]c3cc(OC)c(C(F)(F)F)cc23)c2ccc(F)cc2OC)cc(OCCO)c1 (racemic) [Compound 2, 2-(4-fluoro-2-methoxyphenyl)-2-((3-(2-hydroxyethoxy)-5-methoxyphenyl)amino)-1-(6-methoxy-5-(trifluoromethyl)-1H-indol-3-yl)ethanone] | 0.00071 µM | 4.8 µM | 174 °C | – | – |
| COc1cc(NC(C(=O)c2c[nH]c3cc(OC)c(OC(F)(F)F)cc23)c2ccc(F)cc2OC)cc(OCCO)c1 (racemic) [Compound 6, 2-(4-fluoro-2-methoxyphenyl)-2-((3-(2-hydroxyethoxy)-5-methoxyphenyl)amino)-1-(6-methoxy-5-(trifluoromethoxy)-1H-indol-3-yl)ethanone] | 0.00084 µM | 3.6 µM | 178 °C | – | – |
| COc1cc(NC(C(=O)c2c[nH]c3c(C)cc(OC(F)(F)F)cc23)c2ccc(Cl)cc2OC)cc(OCCO)c1 (racemic) [Compound 16, 2-(4-chloro-2-methoxyphenyl)-2-((3-(2-hydroxyethoxy)-5-methoxyphenyl)amino)-1-(7-methyl-5-(trifluoromethoxy)-1H-indol-3-yl)ethanone] | 0.00019 µM | 2.5 µM | 105 °C | – | – |
| COc1cc(NC(C(=O)c2c[nH]c3ccccc23)c2ccc(F)cc2)cc(OCCO)c1 (centres unmarked) [(350) of WO-2013/045516] | – | – | – | 0.01 µM | 46 µM |
